Measured values taken from patent publication US20110028719A1, “SCREENING METHODS FOR AMYLOID BETA MODULATORS” (priority 2006, published 2011).

Biological target: immobilized Aβ fibrils (Homo sapiens, UniProt P05067)
Assay: FAC-MS assay of free Aβ monomer (indicator) binding to immobilized Aβ fibrils in the presence of test compounds
Details: for Aβ Shift: FAC-MS screen, shift of free Aβ monomer breakthrough on immobilized Aβ fibrils in presence of compound, scale not given

Sequence of immobilized Aβ fibrils (P05067 672-713 limits assumed): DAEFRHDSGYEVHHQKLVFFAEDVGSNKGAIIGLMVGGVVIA

SMILES | Aβ Shift | % of Shift (FAC-MS % shift of breakthrough time of free Aβ1-42 monomer (1 μM) on immobilized Aβ fibrils, compounds 1-10 μM in 20 mM NH4OAc, 1% DMSO, void marker M3) [%]
Nc1ncnc2c1ncn2C1CCC(CO)C(O)C1 (stereo not shown) | 1 | –
CC(C)(C)C(=O)O[C@H]1[C@H](OC(=O)C(C)(C)C)[C@@H](OC(=O)C(C)(C)C)[C@H](OC(=O)C(C)(C)C)[C@@H](OC(=O)C(C)(C)C)[C@H]1OC(=O)C(C)(C)C | 4 | –
O=C1OC2C3CC([C@@H]2I)[C@@H](CO)C13 (stereo partly shown) | 0 | –
CC1CCCC(C)C1CO (stereo not shown) | 1 | –
COC1C(O)C2OC3(CCCCC3)OC2C2OC3(CCCCC3)OC12 (racemic) [Compound 53226-6, 1,2,3,4-DL-O-cyclohexyldene-5-O-methyl-L-chiro-inositol, reference compound] | – | 2
CC1CCCC(NC(=O)c2ccc3snnc3c2)C1C (stereo not shown) | 1 | –
CC1CC(C)C(C(=O)c2ccccc2)C(O)C1 (stereo not shown) | 1 | –
CC1CCC(C(C)CS)CC1S (stereo not shown) | 1 | –

Now from value to compound, other results behind:

Aβ Shift | SMILES | % of Shift (FAC-MS % shift of breakthrough time of free Aβ1-42 monomer (1 μM) on immobilized Aβ fibrils, compounds 1-10 μM in 20 mM NH4OAc, 1% DMSO, void marker M3) [%]
1 | CC1C2CC3(C)CC(C(=O)O)(C2)CC1(C)C3 (stereo not shown) | –
1 | CC12CC3(C)CC(C)(C1)CC(C(=O)NCC(=O)O)(C2)C3 | –
1 | CC1CCC(C(C)C)C(OC(=O)C(O)O)C1 (stereo not shown) | –
2 | CN(C)CCOC(=O)C12CC3(C)CC(C)(CC(C)(C3)C1)C2 | –
1 | CC(O)C#CC1(O)C(C)CCCC1(C)C (stereo not shown) | –
1 | COC(=O)CNC(=O)C12CC3(C)CC(C)(CC(C)(C3)C1)C2 | –
1 | CC(=O)NC12CC3(C)CC(C)(CC(O)(C3)C1)C2 | –
1 | CC12CC3CC(C)(C1)CC(C(=O)NNC(N)=O)(C3)C2 | –
0 | CC1(C)CC(=O)C2=C(C1)CC1(C)CC(C)(C)CC2(C#N)C1 (stereo not shown) | –
2 | CC1CC(NS(=O)(=O)c2cccs2)CC(C)(C)C1 (stereo not shown) | –
1 | CC12CC3(C)CC(C)(C1)CC(NC(=O)NC(C)(C)C)(C2)C3 | –
